Key:
[1] = system: mouse liver; experiment: ANIT diet liver fibrosis model (Picrosirius red staining, qRT-PCR); settings: ANIT diet 4 weeks vs control diet
Description: Fibrosis is a universal pathological finding for chronic diseases in any organ(14) and it would be useful to identify biomarkers of fibrosis that are specific for an organ or be able to indicate their origin.
Animals were housed in an Association for Assessment and Accreditation of Laboratory Animal Care International-accredited facility at Michigan State University and all procedures were approved by the Michigan State University Institutional Animal Care and Use Committee.
(§1) Formalin fixed, paraffin embedded kidney sections were Masson Trichrome's stained and evaluated by a renal pathologist under a light microscope in blinded fashion relative to sample group. Percent area of fibrosis relative to the total section area was evaluated. Sirius red staining of the […] sections was performed at the Michigan State University Investigative Histopathology Laboratory.
(§2) Total RNA was extracted from frozen kidney tissue using TRIzol reagent (Invitrogen). Following RNA concentration measurement by NanoDrop spectrophotometer (Thermo Fischer Scientific), 1 μg RNA was used for cDNA preparation using QuantiTect Reverse Transcription Kit from Qiagen (Valencia, Calif.). qRT-PCR using QuantiFast SYBR Green PCR Kit (Qiagen) was performed in 384-well plates on an Applied Biosystems 7900HT Fast Real-Time PCR System instrument with the following temperature profile: 3 min enzyme activation at 95° C. followed by 40 cycles of 95° C. for 10 s, and 55° C. for 30 s. Primer pairs used are listed in Supplementary Table 1. Gapdh was used as reference gene for normalization. The SDS 2.4 software (Applied Biosystems) was used to compute the threshold cycle (Cq) and the relative expression for an mRNA was assessed using the 2^−ΔCq method.

[2] = system: kidney fibrosis after FA injection in mice; experiment: Enalapril treatment in folic acid (FA) nephropathy model of kidney fibrosis (histology, qRT-PCR); assay type: in vivo, mouse; settings: day 14
Method: Conversely, to test if the markers reflect recovery from fibrosis interventions on the renin-angiotensin system were used.
Mice were sacrificed at 1, 2, 3, 7 and 14 days following administration. […] All mice were sacrificed at 14 days.
as §1, §2

[3] = enalapril 200 mg/l in drinking water after FA injection, kidney qRT-PCR vs control

Structure (SMILES) | Mgp gene level [1] | Scn7a gene level [1] | Sytl2 gene level [1] | collagen 1a1 gene expression [1] | kidney fibrosis development (histological assessment) ([2]; enalapril 200 mg/l continuously in drinking water after FA injection, vs plain water control) | reduction of collagen 1a1 mRNA expression ([2]; enalapril 200 mg/l in drinking water after FA injection, kidney qRT-PCR) [fold] | Cdh11 gene expression level [2, 3] | Gabrp gene expression level [2, 3] | Mrc1 gene expression level [2, 3] | Scn7a gene expression level [2, 3] | Smoc2 gene expression level [2, 3]
S=C=Nc1cccc2ccccc12 [ANIT, α-naphthylisothiocyanate] | significantly higher (p<0.05) gene levels | significantly higher (p<0.05) gene levels | significantly higher (p<0.05) gene levels | significantly increased collagen 1a1 gene expression |  |  |  |  |  |  | 
CCOC(=O)[C@H](CCc1ccccc1)N[C@@H](C)C(=O)N1CCC[C@H]1C(=O)O [enalapril] |  |  |  |  | reduced kidney fibrosis development | ~3 | significant (p<0.05) decreases | significant (p<0.05) decreases | significant (p<0.05) decreases | significant (p<0.05) decreases | significant (p<0.05) decreases
